# Experimental data as given in ChEMBL document CHEMBL1949590, “Discovery of a novel class of orally active trypanocidal N-myristoyltransferase inhibitors” (J Med Chem, 2012).
# The source made the active and inactive calls. No cut-off for these calls is given here.
# System: Trypanosoma brucei
# Experiment: Antimicrobial activity against blood stream form Trypanosoma brucei BSF427 expressing VSG118 after 69 hrs by resazurin-based fluorescent assay
# Type: functional, organism-based
# Details: BSF427, 69 h
row,Structure (SMILES),EC50
1,Cc1nn(C)c(C)c1NS(=O)(=O)c1c(Cl)cc(-c2ccc(CN3CCN(C)CC3)cc2)cc1Cl,3.6 µM

# System: not listed separately
# Experiment: Dissociation constant, pKa of the compound
# Type: physicochemical
# Details: not given
row,pKa,Structure (SMILES)
1,9.6,Cc1nn(C)c(C)c1NS(=O)(=O)c1ccc(NCCC2CCN(C)CC2)nc1
2,7.9,Cc1nn(C)c(C)c1NS(=O)(=O)c1ccc(NCCN2CCN(C)CC2)nc1
3,9.3,Cc1nn(C)c(C)c1NS(=O)(=O)c1ccc(NCCN2CCNCC2)nc1

row,Structure (SMILES),pKa
1,Cc1nn(C)c(C)c1NS(=O)(=O)c1ccc(NCCCn2ccnc2)nc1,7.1

# System: not listed separately
# Experiment: Fraction unbound in mouse plasma
# Type: ADME, cell-free
# Details: not given
row,Structure (SMILES),fraction unbound
1,Cc1nn(C)c(C)c1NS(=O)(=O)c1c(Cl)cc(-c2ccnc(N3CCNCC3)c2)cc1Cl [listing 1 of 2 here],0.11

# System: Trypanosoma brucei brucei
# Experiment: Antitrypanosomal activity against Trypanosoma brucei brucei GVR35 infected in NMRI mouse assessed as increase in survival time at 100 mg/kg, po bid administered on day 21 post infection for 5 days after 21 days relative to control
# Type: functional, organism-based
# Design: dose 100 mg/kg
# Details: not given
row,Structure (SMILES),Survival
1,Cc1nn(C)c(C)c1NS(=O)(=O)c1c(Cl)cc(-c2ccnc(N3CCNCC3)c2)cc1Cl [listing 2 of 2 here],inactive

# System: Trypanosoma brucei brucei
# Experiment: Antitrypanosomal activity against Trypanosoma brucei brucei GVR35 infected in NMRI mouse assessed as increase in survival time at 20 mg/kg, ip qd for 5 days measured after 180 days
# Type: functional
# Details: route intraperitoneal
row,Structure (SMILES),survival at 20 mg/kg
1,Nc1nc(N)nc(Nc2ccc([As]3SCC(CO)S3)cc2)n1 (stereo not given) [MELARSOPROL],100%

# Biological target: T1, Glycylpeptide N-tetradecanoyltransferase 1 (Homo sapiens, UniProt P30419)
# T1 sequence (P30419 whole entry): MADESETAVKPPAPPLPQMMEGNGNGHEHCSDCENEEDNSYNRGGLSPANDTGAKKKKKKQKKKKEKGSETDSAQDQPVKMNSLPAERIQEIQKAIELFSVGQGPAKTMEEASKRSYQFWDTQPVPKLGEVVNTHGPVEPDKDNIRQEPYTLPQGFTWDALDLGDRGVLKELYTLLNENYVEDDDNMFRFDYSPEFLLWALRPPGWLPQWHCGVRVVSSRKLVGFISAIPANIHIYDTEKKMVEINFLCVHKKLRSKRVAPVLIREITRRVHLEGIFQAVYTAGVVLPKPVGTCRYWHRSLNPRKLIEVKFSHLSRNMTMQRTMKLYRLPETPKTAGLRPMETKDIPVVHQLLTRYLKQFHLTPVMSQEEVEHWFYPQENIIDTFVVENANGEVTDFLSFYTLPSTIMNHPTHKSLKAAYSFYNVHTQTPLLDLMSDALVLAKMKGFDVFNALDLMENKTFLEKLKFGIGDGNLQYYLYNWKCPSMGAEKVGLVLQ
# Details: not given
row,Structure (SMILES),IC50
1,Cc1nn(C)c(C)c1NS(=O)(=O)c1ccc(NCCCN2CCN(C)CC2)nc1,2.4 µM
2,Cc1nn(C)c(C)c1NS(=O)(=O)c1ccc(N2CCC(N3CCNCC3)C2)nc1 (stereo not given),1.6 µM
3,Cc1nn(C)c(C)c1NS(=O)(=O)c1ccc(NCCN2CCN(C(C)C)CC2)nc1,> 1 µM
4,Cc1nn(C)c(C)c1NS(=O)(=O)c1ccc(NCCCn2ccnc2)nc1,8.7 µM
5,Cc1nn(C)c(C)c1NS(=O)(=O)c1c(Cl)cc(-c2cccc3c2CCNC3)cc1Cl,4.3 µM
6,Cc1nn(C)c(C)c1NS(=O)(=O)c1ccc(NCCN2CCN(c3ccccc3)CC2)nc1,> 1 µM
7,Cc1nn(C)c(C)c1NS(=O)(=O)c1c(Cl)cc(-c2ccc(CN3CCN(C)CC3)cc2)cc1Cl,4.2 µM
8,Cc1nn(C)c(C)c1NS(=O)(=O)c1ccc(NCc2ccc3[nH]ccc3c2)nc1,2.7 µM
9,Cc1nn(C)c(C)c1NS(=O)(=O)c1ccc(NCCN2CCN(Cc3ccccc3)CC2)nc1,> 10 µM
10,Cc1nn(C)c(C)c1NS(=O)(=O)c1ccc(Cl)nc1,> 100 µM
11,Cc1nn(C)c(C)c1NS(=O)(=O)c1c(Cl)cc(-c2cccc3cnccc23)cc1Cl,> 100 µM
12,Cc1nn(C)c(C)c1NS(=O)(=O)c1ccc(NCCN2CCN(C(=O)OC(C)(C)C)CC2)nc1,> 10 µM
